# Measurements reported in patent US9763992B2, “Treatment of noise induced hearing loss” (Father Flanagan's Boys' Home, priority 2014, dated 2017).
# Key:
# [1] = system: IL-4; test: qRT-PCR cytokine expression after noise exposure: IL-4; assay type: in vivo, mouse; conditions: GA-treated mice, 10 days following noise exposure (Group 1), spleen tissues, FIG. 6
# Description: (§1) To determine if GA affects cytokine expression, groups of mice received GA as described above, and cytokine expression was evaluated via RT-PCR. […]
# [2] = system: noise-induced hearing loss (NIHL) in CBA mice; test: ABR threshold recovery after traumatizing noise exposure in mice; assay type: in vivo, mouse
# Description: (§2) To determine if the glatiramer acetate (GA) prevents or reduces hearing loss in mice following exposure to traumatizing noise, following determination of baseline acoustic thresholds (i.e., pre-noise exposure thresholds), hearing sensitivity and input-output relationships was assessed during the post-noise exposure period using auditory evoked brainstem responses (ABRs) and distortion product otoacoustic emissions (DPOAEs); DPOAEs were studied using the same protocol as in ABR-based studies to separate findings associated with neural and sensory outcomes. Responses to tone burst stimuli was acquired immediately following noise exposure, daily during the early post-exposure period, and intermittently thereafter for six (6) months to generally assess the long-term outcome of exposure to traumatizing noise in CBA mice. Morphological correlates of final treatment outcomes, including sensory and support cell (cytocochleograms), synapses between hair cells and spiral ganglion dendrites, and SGN survival estimates, was made at the end of the acute phase (2 months following noise exposure) or at 6 months to assess long-term outcomes.
# The traumatizing noise used in CBA mouse studies was an octave band of white noise centered on 11.3 kHz and was presented at 109 dB SPL for 30 min. Because of well-documented differences in the abilities of males and females to mount inflammatory responses, both males and females were included in this investigation.
# In mice, GA (100 mg/kg) was administered following two treatment strategies. In Group 1, GA was administered in sequential doses one month and one week prior to noise exposure (the “protection” approach), with supplementary doses on a daily basis for the first 4 days following noise exposure and again on the 7th and 14th post-exposure days in mice, to determine if GA can prevent permanent hearing loss associated with traumatizing noise. In Group 2, GA was administered only during the post-noise exposure period in an effort to determine if GA can rescue hearing following acute trauma. In a subset of animals, GA was administered prior to noise exposure and then daily for the first ten post-exposure days. Complete Freund's adjuvant will be used to deliver the first dose of the agent to determine if GA actions might be potentiated (boosted) when delivered in an emulsified form in a separate group of mice.
# An example of findings associated with this experimental design is shown in FIG. 2, in which families of ABR threshold-frequency curves (audiograms) generated by tracking sensitivity according to the “protection” protocol reviewed above in a GA-treated animal (right panel) and a saline-treated control (left panel) that were exposed to noise simultaneously are shown.
# With this example, to determine if treatment with GA alone reduces the amount of temporary and permanent hearing loss and/or accelerates the rate of recovery from temporary threshold shift (TTS), groups of mice received GA or saline and were evaluated as described above.
# [3] = system: interferon-gamma; test: qRT-PCR cytokine expression after noise exposure: interferon-gamma; assay type: in vivo, mouse; conditions: GA-treated mice, 10 days following noise exposure (Group 1), spleen tissues, FIG. 6
# Description: as §1
# [4] = system: TNF-alpha; test: qRT-PCR cytokine expression after noise exposure: TNF-alpha; assay type: in vivo, mouse; conditions: GA-treated mice, 10 days following noise exposure (Group 1), FIG. 7
# Description: (§3) To determine if GA affects cytokine expression, groups of mice received GA as described above, and cytokine expression was evaluated via RT-PCR.
# (§4) Using RT-PCR, the effects of GA on cytokine expression in the cochlea, specifically those mediators associated with pro- or anti-inflammatory activity, was established.
# [5] = system: TGF-β; test: qRT-PCR cytokine expression after noise exposure: TGF-β; assay type: in vivo, mouse; conditions: GA-treated mice, spleen tissues
# Description: as §3, §4
# [6] = system: IL-2; test: qRT-PCR cytokine expression after noise exposure: IL-2; assay type: in vivo, mouse; conditions: GA-treated mice, 10 days following noise exposure (Group 1), FIG. 7
# Description: as §3, §4
# [7] = system: noise-induced hearing loss (NIHL) in CBA mice; test: DPOAE input-output curves (outer hair cell function) after noise exposure in mice; assay type: in vivo; conditions: one GA-treated mouse relative to saline-treated; 14 days following noise exposure; f2=11.3 kHz; FIG. 4
# Description: as §2
# The traumatizing noise used in CBA mouse studies was an octave band of white noise centered on 11.3 kHz and was presented at 109 dB SPL for 30 min. […]
# [8] = system: IL-17; test: qRT-PCR cytokine expression after noise exposure: IL-17; assay type: in vivo, mouse; conditions: GA-treated mice, 10 days following noise exposure (Group 1), FIG. 7
# Description: as §3, §4
substance,measurement,setting,value
Glatiramer acetate [GA],"Expression of anti-inflammatory cytokine IL-4, fold greater than controls",[1],2.6 fold
same,Total extent of recovery following exposure (cohort),"[2]; GA cohort, control animals approximately 17 dB, FIG. 5",~25 dB
same,Threshold recovery during the first 10 days following exposure relative to saline-treated controls and GA-treated mice below criterion,"[2]; GA-treated mice with at least 3.4-fold IL-4 increase, stimulus frequencies within the noise band (8.0, 11.3 and 16.0 kHz), FIG. 9",greater
same,Overall threshold recovery from NIHL relative to saline-treated controls and GA-treated mice below criterion,"[2]; GA-treated mice with at least 3.4-fold increase in IL-4 expression (criterion), FIG. 8",significantly greater
same,Recovery with GA treatment alone compared with saline controls,[2]; P<0.05,significantly enhanced
same,Recovery from NIHL (ABR threshold-frequency curves),"[2]; one GA-treated mouse, protection protocol, GA 100 mg/kg, frequencies at and immediately above noise centre frequency 11.3 kHz, first 14 days after exposure, FIG. 2, 3",nearly complete
same,"Interferon-gamma expression, reduction re controls",[3],66%
same,TNF-α expression,[4],down-regulated
same,TGF-β expression,[5],up-regulation
same,IL-2 expression,[6],down-regulated
same,"Recovery of outer hair cell (OHC) function, DPOAE input-output curves",[7],nearly complete recovery
same,IL-17 expression,[8],down-regulated
